What was measured:
[1] = species on record: Rattus norvegicus; test: The compound was tested for inhibition of [Fe2+]-induced MDA formation in rat brain homogenate.; type: functional
[2] = test system: Mus musculus; test: The compound was tested for inhibition of lung eosinophilia in mouse at 30 mg/kg/day, po; type: functional
[3] = test system: Rattus norvegicus; test: The compound was tested for inhibition of lung eosinophilia in rat at 30mg/kg/day, po; type: functional
[4] = test system: Rattus norvegicus; test: The compound was tested for inhibition of lung eosinophilia in rat at 3 mg/kg/day, po; type: functional
[5] = The compound was tested for systemic clearance pharmacokinetic parameter in the male Sprague-Dawley rat.; type: ADME, organism-based; conditions: in vivo
[6] = The compound was tested for Cmax value pharmacokinetic parameter in the male Sprague-Dawley rat.; type: ADME, organism-based; conditions: in vivo
[7] = The compound was tested for tmax value pharmacokinetic parameter in the male Sprague-Dawley rat.; type: ADME, organism-based; conditions: in vivo
[8] = species on record: Mus musculus; test: The compound was evaluated for increase in neurological status at 1 hr post head injury using a simple grip test in mouse.; type: functional
[9] = test system: Mus musculus; test: The compound was tested for inhibition of lung eosinophilia in mouse at 10 mg/kg/day, po; type: functional
[10] = The compound was tested for steady state volume of distribution pharmacokinetic parameter in the male Sprague-Dawley rat.; type: ADME, organism-based; conditions: in vivo
[11] = The compound was tested for cytoprotective effect against the human astroglial cells.; type: functional, cell-based
[12] = species on record: Mus musculus; test: The compound was tested for spinal neuroprotection in mouse.; type: functional, organism-based
[13] = Oral bioavailability in rat (Sprague-Dawley) (male); type: ADME, organism-based; conditions: in vivo
[14] = The compound was tested for terminal half-life pharmacokinetic parameter in the male Sprague-Dawley rat.; type: ADME, organism-based; conditions: in vivo
[15] = test system: Mus musculus; test: The compound was tested for inhibition of lung eosinophilia in mouse at 3 mg/kg/day, po; type: functional
[16] = test system: Rattus norvegicus; test: The compound was tested for inhibition of lung eosinophilia in rat at 10 mg/kg/day, po; type: functional
[17] = test system: Rattus norvegicus; test: The compound was tested for inhibition of lung eosinophilia in rat at 30 mg/kg/day, po; type: functional
[18] = test system: Rattus norvegicus; test: The compound was tested for inhibition of lung eosinophilia in rat at 3mg/kg/day, po; type: functional

Compound	IC50 [1] [nM]	clearance [5] [mL/min/kg]	Cmax [6] [ng/mL]	Tmax [7] [h]	Vd [10] [L/kg]	EC50 [11] [nM]	IC50 [12] [nM]	bioavailability [13] [%]	half-life [14] [h]	inhibition in vivo at 30 mg/kg/day [2] [%]	inhibition in vivo at 30 mg/kg/day [3] [%]	inhibition in vivo at 3 mg/kg/day [4] [%]	Score [8] [%]	inhibition in vivo at 10 mg/kg/day [9] [%]	inhibition in vivo at 3 mg/kg/day [15] [%]	inhibition in vivo at 10 mg/kg/day [16] [%]	inhibition in vivo at 30 mg/kg/day [17] [%]	inhibition in vivo at 3 mg/kg/day [18] [%]
COc1ccc(-c2cc3c(N4CCCC4)nc(N4CCCC4)nc3n2C)cc1	1000	20.7	600	4	42.8	400	3400	59.8	24.3				73					
c1ccc2c(c1)c1c(N3CCCC3)nc(N3CCCC3)nc1n2CCN1CCOCC1		2	14700	2	1.92	3000	10600	69.9	15.7	71	85			62	53	87		
Cn1c(-c2ccccc2)cc2c(N3CCCC3)nc(N3CCCC3)nc21	5000	23.7	1420	4	44	900	1300	55.9	22.1				104					

Compounds with a lower EC50 [11], results first:

IC50 [1] [nM]	clearance [5] [mL/min/kg]	Cmax [6] [ng/mL]	Tmax [7] [h]	Vd [10] [L/kg]	EC50 [11] [nM]	IC50 [12] [nM]	bioavailability [13] [%]	half-life [14] [h]	Compound	inhibition in vivo at 30 mg/kg/day [2] [%]	inhibition in vivo at 30 mg/kg/day [3] [%]	inhibition in vivo at 3 mg/kg/day [4] [%]	Score [8] [%]	inhibition in vivo at 10 mg/kg/day [9] [%]	inhibition in vivo at 3 mg/kg/day [15] [%]	inhibition in vivo at 10 mg/kg/day [16] [%]	inhibition in vivo at 30 mg/kg/day [17] [%]	inhibition in vivo at 3 mg/kg/day [18] [%]
2000	1.67	40300	2	1.09	200	340	70.2	8.9	Cn1c2c(c3c(N4CCCC4)nc(N4CCCC4)nc31)CCCC2	41	47	72	276	31	0			
1000	8.83	5710	4	39.7	200	7000	84.6	10.9	Cc1cc2c(N3CCCC3)nc(N3CCCC3)nc2n1C	0			100	0	0	27	28	0
1000	38.8	720	8	66.2	200	130	31.4	6.1	Cn1c(-c2ccc(O)cc2)cc2c(N3CCCC3)nc(N3CCCC3)nc21				138					
	0.967	19400	2	0.94	300	1100	78.3	11.2	C1CCc2c(c3c(N4CCCC4)nc(N4CCCC4)nc3n2CCN2CCOCC2)C1	72	62	13	163	56	37	30		

Reference: ChEMBL document CHEMBL1128318, “Synthesis of novel 2,4-diaminopyrrolo-[2,3-d]pyrimidines with antioxidant, neuroprotective, and antiasthma activity” (J Med Chem, 1995)
